# Patent US20260053716A1, “COMPOSITION FOR DENTIN ADHESION AND COMPOSITION FOR PULP RESTORATION, EACH COMPOSITION CONTAINING CPNE7-DERIVED PEPTIDE” (HYSENSBIO CO., LTD, priority 2022, published 2026)
# Ends that are not written are not given here.
# Assay: Observation of dentinal tubule permeability by confocal microscopy
# Type: in vitro ADME
# Details: rhodamine-attached KH001 in ABU, applied about 30 seconds to coronal surface of extracted human tooth
# Text: The composition for dentin adhesion prepared according to Example 2-1-1 of the present invention was applied to extracted human teeth to observe dentinal tubule permeability. The extracted human teeth were impacted human third molars from patients aged 18 to 22, provided by the Seoul National University Dental Hospital. The experimental protocol was approved by the Institutional Review Board (IRB; IRB Number: S-D20140007), and prior consent was obtained from all patients.
# The crown of the extracted human tooth was transversely cut using a diamond saw to expose the dentinal tubule, and then the exposed human tooth was treated. A composition for dentin adhesion prepared according to Example 2-1-1 containing the KH001 peptide (SEQ ID NO: 96), to which rhodamine was attached as a fluorescent dye, was applied to the coronal surface of the extracted human tooth.
# The composition for dentin adhesion was applied without a brushing process or an air-drying process and left for about 30 seconds for photopolymerization, and then confocal images were taken.
sequence,measurement,value
"KYKQKRRSYK [KH001, KYKQKRRSYK]",dentinal tubule permeability (whether KH001 reached the pulp),flowed well into the pulp cavity along the dentinal tubule
